From patent US6831199B1, “Pyrimidine compounds and derivatives thereof” (G. D. Searle & Co., priority 1995, dated 2004)
Where a name gives a salt, the structure may show the parent alone.

Columns and labels:
[1] = molecular target: T1, Human fibrinogen receptor (αIIbβ3) (Homo sapiens, UniProt P05106+P08514); experiment: Purified IIb/IIIa receptor assay (solid phase receptor assay, competition with biotinylated vitronectin); type: binding; conditions: read-out: IIb/IIIa IC50
T1 construct: Human fibrinogen receptor (αIIbβ3) was purified from outdated platelets; from tissue; host or cells: outdated human platelets
In short: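 Competition format: 1 nM biotinylated vitronectin plus test compound (highest 1.0×10^−4 M), 2 h at room temperature on wells coated with platelet-derived αIIbβ3. Buffer was TBS containing 1.0 mM Ca, Mg, Mn, pH 7.4. HRP anti-biotin readout at 450 nm; normalized to maximum binding, four-parameter curve fit.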

[2] = molecular target: T2, Human vitronectin receptor (αvβ3) (Homo sapiens, UniProt P05106+P06756); experiment: Vitronectin adhesion assay (solid phase receptor assay, competition with biotinylated vitronectin); type: binding; conditions: read-out: AvB3 IC50
T2 construct: Human vitronectin receptor (αvβ3) was purified from human placenta; from tissue; host or cells: human placenta
In short: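 Purified human αvβ3 coated overnight at 4 °C in TBS with 1.0 mM Ca++, Mg++, Mn++, pH 7.4; compounds (top final 1.0×10^−4 M) competed with 1 nM biotinylated vitronectin for 2 h at room temperature. Bound ligand detected by HRP anti-biotin/OPD at A450; values normalized to no-competitor controls, four-parameter curve fit.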

| Structure (SMILES) | IC50 [1] | IC50 [2] |
| --- | --- | --- |
| O=C(O)CC(NC(=O)CNC(=O)c1cccc(NC2=NCCC2)c1)c1cc(Cl)cc(Cl)c1 (racemic) [Example 203, (±)β-[[2-[[[3-[(3,4-dihydro-2H-pyrrol-5-yl)amino]phenyl]carbonyl]amino]acetyl]amino]-3,5-dichlorobenzenepropanoic acid, trifluoroacetate salt] | 0.65 µM | 0.00356 µM |
| CCN/C(=N\C#N)Nc1cccc(C(=O)NCC(=O)NC(CC(=O)OCC)c2ccccc2)c1 (stereo not drawn) [Example 135, ethyl β-[[2-[[[3-[[(cyanoimino)(ethylamino)methyl]amino]phenyl]carbonyl]amino]acetyl]amino]benzenepropanoate] | > 100 µM | 50.7 µM |
| N=C(N)Nc1cccc(C(=O)NCC(=O)NC(CC(=O)O)C2CCCCC2)c1 (racemic) [Example 229, (±)β-[[2-[[[3-[(aminoiminomethyl)amino]phenyl]carbonyl]amino]acetyl]amino]cyclohexanepropanoic acid, trifluoroacetate salt, monohydrate] | 10.6 µM | 0.0391 µM |
| CCOC(=O)CC(NC(=O)CNC(=O)c1cccc(NC(=N)N)c1)c1ccc2c(c1)OCO2 (racemic) [Example 5, (±)ethyl β-[[2-[[[3-[(aminoiminomethyl)amino]phenyl]carbonyl]amino]acetyl]amino]-1,3-benzodioxole-5-propanoate, trifluoroacetate salt] | 3.15 µM | 0.227 µM |
| NC(=S)Nc1cccc(C(=O)NCC(=O)NC(CC(=O)O)c2cc(Cl)cc(Cl)c2)c1 (racemic) [Example 206, (±)β-[[2-[[[3-[(aminothioxomethyl)amino]phenyl]carbonyl]amino]acetyl]amino]-3,5-dichlorobenzenepropanoic acid] | 22 µM | 0.0785 µM |
| O=C(O)CC(NC(=O)CNC(=O)c1cccc(NC2=NCCCN2)c1)c1cc(Cl)cc(Cl)c1O (racemic) [Example 237, (±)3,5-dichloro-2-hydroxy-β-[[2-[[[3-[(1,4,5,6-tetrahydropyrimidin-2-yl)amino]phenyl]carbonyl]amino]acetyl]amino]benzenepropanoic acid, trifluoroacetate salt, monohydrate] | 1.95 µM | 0.00057 µM |
| N=C(N)Nc1cc(C(=O)O)cc(C(=O)NCC(=O)NC(CC(=O)O)c2cc(Cl)cc(Cl)c2)c1 (stereo not drawn) [Example 290, β-[[2-[[[3-[(aminoiminomethyl)amino]-5-carboxyphenyl]carbonyl]amino]acetyl]amino]-3,5-dichlorobenzenepropanoic acid, trifluoroacetate salt] | 1.02 µM | 0.00162 µM |
| Nc1nnc(Nc2cccc(C(=O)NCC(=O)NC(CC(=O)O)c3cc(Cl)cc(Cl)c3)c2)[nH]1 (stereo not drawn) [Example 282, β-[[2-[[[3-[(5-amino-1,2,4-triazol-3-yl)amino]phenyl]carbonyl]amino]acetyl]amino]-3,5-dichlorobenzenepropanoic acid, trifluoroacetate salt] | 9.77 µM | 0.864 µM |
| N=C(N)Nc1cccc(C(=O)NCC(=O)NC(CC(=O)O)c2ccccc2OCC(=O)O)c1 (stereo not drawn) [Example 255, β-[[2-[[[3-[(aminoiminomethyl)amino]phenyl]carbonyl]amino]acetyl]amino]-2(carboxymethoxy)benzenepropanoic acid, trifluoroacetate salt] | 6.05 µM | 0.0284 µM |
| O=C(O)CC(NC(=O)CNC(=O)c1cccc(NC(=O)NCc2ccncc2)c1)c1cccnc1 (stereo not drawn) [Example 266, β-[[2-[[[3-[[[(4-pyridinylmethyl)amino]carbonyl]amino]phenyl]carbonyl]amino]acetyl]amino]pyridine-3-propanoic acid, (bis)trifluoroacetate salt] | 1.81 µM | 0.00077 µM |
| N=C(N)Nc1cccc(C(=O)NC2(C(=O)NC(CC(=O)O)c3cccnc3)CC2)c1 (stereo not drawn) [Example 19, β-[[1-[[[3-[(aminoiminomethyl)amino]phenyl]carbonyl]amino]cycloprop-1-yl]carbonyl]amino]pyridine-3-propanoic acid, bis(trifluoroacetate)salt] | 72 µM | 0.303 µM |
| CC(CC(=O)O)NC(=O)CNC(=O)c1cccc(NC(=O)NCc2cc(Cl)cc(Cl)c2)c1 (stereo not drawn) [Example 274, 3-[[2-[[[3-[[[[(3,5-dichlorophenyl)methyl]amino]carbonyl]amino]phenyl]carbonyl]amino]acetyl]amino]butanoic acid] | 21.2 µM | 0.0311 µM |

These reach a lower IC50 [1]. Values come first.

| IC50 [1] | IC50 [2] | Structure (SMILES) |
| --- | --- | --- |
| 0.223 µM | 0.00358 µM | N=C(N)Nc1cccc(C(=O)NCC(=O)NC(CC(=O)O)c2ncc[nH]2)c1 (racemic) [Example 364, (±)β-[[2-[[[3-[(aminoiminomethyl)amino]phenyl]carbonyl]amino]acetyl]amino]-1H-imidazole-2-propanoic acid, tris(trifluoroacetate)salt] |
| 0.264 µM | 0.00131 µM | N=C(N)Nc1cccc(C(=O)NCC(=O)NC(CC(=O)O)c2ccc(Br)cc2)c1 (racemic) [Example 187, (±)β-[[2-[[[3-[(aminoiminomethyl)amino]phenyl]carbonylamino]acetyl]amino]-4-bromobenzenepropanoic acid, trifluoroacetate salt] |
| 0.0653 µM | 0.00074 µM | N=C(N)Nc1cccc(C(=O)NCC(=O)NC(CC(=O)O)c2cccc(OCC(=O)O)c2)c1 (stereo not drawn) [Example 260, β-[[2-[[[3-[(aminoiminomethyl)amino]phenyl]carbonyl]amino]acetyl]amino]-3-(carboxymethoxy)benzenepropanoic acid, trifluoroacetate salt] |
| 0.269 µM | 0.00229 µM | N=C(N)Nc1cc(C(=O)NCC(=O)NC(CC(=O)O)c2cc(Cl)cc(Cl)c2)ccc1Cl (stereo not drawn) [Example 168, β-[[2-[[[3-[(aminoiminomethyl)amino]-4-chlorophenyl]carbonyl]amino]acetyl]amino]-3,5-dichlorobenzenepropanoic acid, trifluoroacetate salt] |
| 0.277 µM | 0.00115 µM | N=C(N)Nc1cccc(C(=O)NCC(=O)NC(CC(=O)O)c2cc(F)cc(C(F)(F)F)c2)c1 (racemic) [Example 208, (±)β-[[2-[[[3-[(aminoiminomethyl)amino]phenyl]carbonyl]amino]acetyl]amino]-3-fluoro-5-(trifluoromethyl)benzenepropanoic acid, trifluoroacetate salt] |
| 0.417 µM | 0.00124 µM | CS(=O)(=O)c1cccc(C(CC(=O)O)NC(=O)CNC(=O)c2cccc(NC(=N)N)c2)c1 (stereo not drawn) [Example 247, β-[[2-[[[3-[(aminoiminomethyl)amino]phenyl]carbonyl]amino]acetyl]amino]-3-(methylsulfonyl)benzenepropanoic acid, bis(trifluoroacetate)salt] |
| 0.109 µM | 0.00084 µM | Cc1ccc(C(CC(=O)O)NC(=O)CNC(=O)c2cccc(NC(=N)N)c2)s1 (stereo not drawn) [Example 253, β-[[2-[[[3-[(aminoiminomethyl)amino]phenyl]carbonyl]amino]acetyl]amino]-5-methylthiophene-2-propanoic acid, trifluoroacetate salt] |
| 0.5 µM | 0.146 µM | CCOC(=O)CC(NC(=O)CNC(=O)c1cccc(NC(=N)N)c1)c1cnc2ccccc2c1 (racemic) [Example 98, (±)ethyl β-[[2-[[[3-[(aminoiminomethyl)amino]phenyl]carbonyl]amino]acetyl]amino]-quinoline-3-propanoate, bis(trifluoroacetate)salt] |
| 0.0174 µM | 0.0005 µM | C#C[C@H](CC(=O)O)NC(=O)CNC(=O)c1ccc(Cl)c(NC(=N)N)c1 [Example 173, 3S-[[2-[[[3-[(aminoiminomethyl)amino]-4-chlorophenyl]carbonyl]amino]acetyl]amino]-4-pentynoic acid, trifluoroacetate salt] |
| 0.0374 µM | 0.00124 µM | N=C(N)Nc1cc(NC(=N)N)cc(C(=O)NCC(=O)NC(CC(=O)O)c2cc(Cl)cc(Cl)c2)c1 (stereo not drawn) [Example 291, β-[[2-[[[3,5-bis[(aminoiminomethyl)amino]phenyl]carbonyl)amino]acetyl]amino]-3,5-dichlorobenzenepropanoic acid, bis(trifluoroacetate)salt] |
| 0.098 µM | 0.00109 µM | COc1cc(OC)cc(C(CC(=O)O)NC(=O)CNC(=O)c2cccc(NC(=N)N)c2)c1 (racemic) [Example 195, (±)β-[[2-[[[3-[(aminoiminomethyl)amino]phenyl]carbonyl]amino]acetyl]amino]-3,5-dimethoxybenzenepropanoic acid, trifluoroacetate salt] |
| 0.0867 µM | 0.00081 µM | N=C(N)Nc1cccc(C(=O)NCC(=O)NC(CC(=O)O)c2cc3ccccc3o2)c1 (stereo not drawn) [Example 259, β-[[2-[[[3-[(aminoiminomethyl)amino]phenyl]carbonyl]amino]acetyl]amino]benzofuran-2-propanoic acid, trifluoroacetate salt] |
